Several values for one entry are separate records, joined by “and”; a condition that tells them apart may be missing. Equal values may be shown once. Toxic doses and inconclusive results are not listed.
Test system: CD2F1 mice, L1210 leukemia ip, survival T/C
Experiment: NCI In Vivo Anticancer Drug Screen. Data for tumor model L1210 Leukemia (intraperitoneal) in CD2F1 (CDF1) mice
Conditions: endpoint: mean survival time, higher = longer survival
Procedure, shortened: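 Mice carrying a transplanted tumor received test compound or vehicle alone. The value is the measurement in the treated group divided by that in the vehicle-treated control group.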

[1] = dose: 20.0 mg/kg/injection, schedule: Q01DX009 (ip), vehicle: saline with Tween-80
[2] = dose: 100.0 mg/kg/injection, schedule: Q01DX001 (ip), vehicle: saline
[3] = dose: 200.0 mg/kg/injection, schedule: Q01DX001 (ip), vehicle: saline
[4] = dose: 400.0 mg/kg/injection, schedule: Q01DX001 (ip), vehicle: saline
[5] = dose: 25.0 mg/kg/injection, schedule: Q04DX002 (ip), vehicle: saline with Tween-80
[6] = dose: 50.0 mg/kg/injection, schedule: Q04DX002 (ip), vehicle: saline with Tween-80
[7] = dose: 100.0 mg/kg/injection, schedule: Q01DX001 (ip), vehicle: saline with Tween-80
[8] = dose: 200.0 mg/kg/injection, schedule: Q01DX001 (ip), vehicle: saline with Tween-80
[9] = dose: 400.0 mg/kg/injection, schedule: Q01DX001 (ip), vehicle: saline with Tween-80
[10] = dose: 100.0 mg/kg/injection, schedule: Q01DX009 (ip), vehicle: saline
[11] = dose: 200.0 mg/kg/injection, schedule: Q01DX009 (ip), vehicle: saline
[12] = dose: 12.5 mg/kg/injection, schedule: Q04DX002 (ip), vehicle: saline with Tween-80
[13] = dose: 6.25 mg/kg/injection, schedule: Q04DX003 (ip), vehicle: saline with Tween-80
[14] = dose: 12.5 mg/kg/injection, schedule: Q04DX003 (ip), vehicle: saline with Tween-80
[15] = dose: 25.0 mg/kg/injection, schedule: Q04DX003 (ip), vehicle: saline with Tween-80

For `CCN1/C(=C/C=C/C=C\C=C\c2sc3ccc4ccccc4c3[n+]2CC)Sc2ccc3ccccc3c21`, the T/C (dose: 1.25 mg/kg/injection, schedule: Q01DX009 (ip), vehicle: saline with Tween-80) was 116 % of control and 117 % of control and 112 % of control, the T/C (dose: 2.5 mg/kg/injection, schedule: Q01DX009 (ip), vehicle: saline with Tween-80) was 116 % of control and 119 % of control and 120 % of control and the T/C (dose: 5.0 mg/kg/injection, schedule: Q01DX009 (ip), vehicle: saline with Tween-80) was 114 % of control. For the same molecule, the T/C (dose: 10.0 mg/kg/injection, schedule: Q01DX009 (ip), vehicle: saline with Tween-80) was 117 % of control and 118 % of control, the T/C [1] was 114 % of control and 116 % of control and the T/C (dose: 40.0 mg/kg/injection, schedule: Q01DX009 (ip), vehicle: saline with Tween-80) was 101 % of control and 112 % of control.
With `O=S1CC2(C1)CS(=O)C2` (stereo unspecified) the T/C [2] was 103 % of control, the T/C [3] was 103 % of control and the T/C [4] was 100 % of control.
For `O=c1c2cccc3cccc(c4n1NC=c1ccccc1=4)c32`, the T/C [5] was 100 % of control, the T/C [6] was 92 % of control and the T/C (dose: 100.0 mg/kg/injection, schedule: Q04DX002 (ip), vehicle: saline with Tween-80) was 96 % of control. The T/C (dose: 200.0 mg/kg/injection, schedule: Q04DX002 (ip), vehicle: saline with Tween-80) was 96 % of control.
In the case of `CCCCCCCCCCCCNC(=O)c1ccc[n+](Cc2ccc(Cl)c(Cl)c2)c1`, the T/C (dose: 12.5 mg/kg/injection, schedule: Q01DX009 (ip), vehicle: saline with Tween-80) is reported as 98 % of control, the T/C (dose: 12.5 mg/kg/injection, schedule: Q04DX003 (ip), vehicle: saline sonified) is reported as 98 % of control and the T/C (dose: 25.0 mg/kg/injection, schedule: Q04DX003 (ip), vehicle: saline sonified) is reported as 98 % of control. The T/C (dose: 50.0 mg/kg/injection, schedule: Q04DX003 (ip), vehicle: saline sonified) was 95 % of control.
In the case of `CCOC(=O)/N=c1\ccccn1O`, the T/C (dose: 75.0 mg/kg/injection, schedule: Q01DX001 (ip), vehicle: saline) is reported as 101 % of control, the T/C (dose: 150.0 mg/kg/injection, schedule: Q01DX001 (ip), vehicle: saline) is reported as 101 % of control and the T/C (dose: 300.0 mg/kg/injection, schedule: Q01DX001 (ip), vehicle: saline) is reported as 105 % of control.
In the case of `Cc1c(O)c2c(c(O)c1Cc1ccc(C#N)cc1)C(=O)c1ccccc1C2=O`, the T/C (dose: 12.5 mg/kg/injection, schedule: Q01DX009 (ip), vehicle: Klucel (hydroxypropylcellulose) (HPC)) is reported as 91 % of control, the T/C (dose: 25.0 mg/kg/injection, schedule: Q01DX009 (ip), vehicle: Klucel (hydroxypropylcellulose) (HPC)) is reported as 96 % of control and the T/C (dose: 100.0 mg/kg/injection, schedule: Q01DX009 (ip), vehicle: Klucel (hydroxypropylcellulose) (HPC)) is reported as 90 % of control. For the same molecule, the T/C (dose: 200.0 mg/kg/injection, schedule: Q01DX009 (ip), vehicle: Klucel (hydroxypropylcellulose) (HPC)) was 94 % of control.
`CC(CCC(=O)O)C1CCC2C3C(O)CC4CC(O)CCC4(C)C3CC(O)C12C` (stereo unspecified) was tested, and the T/C [7] was 96 % of control, the T/C [8] was 100 % of control and the T/C [9] was 96 % of control.
For `CN1CCCC(OC(=O)N(C)C)C1` (stereo unspecified), the T/C [10] was 96 % of control and the T/C [11] was 98 % of control.
With `c1ccc(C[n+]2cccc3ccccc32)cc1` the T/C (dose: 5.0 mg/kg/injection, schedule: Q04DX003 (ip), vehicle: saline with Tween-80) was 101 % of control, the T/C (dose: 10.0 mg/kg/injection, schedule: Q04DX003 (ip), vehicle: saline with Tween-80) was 98 % of control and the T/C (dose: 20.0 mg/kg/injection, schedule: Q04DX003 (ip), vehicle: saline with Tween-80) was 98 % of control.
`c1cncc(C2OCCO2)c1` was tested, and the T/C [10] was 105 % of control, the T/C [11] was 100 % of control and the T/C (dose: 400.0 mg/kg/injection, schedule: Q01DX009 (ip), vehicle: saline) was 100 % of control.
With `CCN(CC)c1cc(Cl)ccc1C` the T/C [12] was 98 % of control, the T/C [5] was 95 % of control and the T/C [6] was 98 % of control. For the same molecule, the T/C (dose: 100.0 mg/kg/injection, schedule: Q01DX001 (ip), vehicle: saline sonified) was 101 % of control, the T/C (dose: 200.0 mg/kg/injection, schedule: Q01DX001 (ip), vehicle: saline sonified) was 95 % of control and the T/C (dose: 400.0 mg/kg/injection, schedule: Q01DX001 (ip), vehicle: saline sonified) was 86 % of control.
In the case of `Cc1cc(F)ccc1NC(=O)Nc1ccc(F)cc1C`, the T/C [5] is reported as 87 % of control and the T/C [6] is reported as 87 % of control.
For `O=[As](O)(O)c1ccccc1[As](=O)(O)O`, the T/C [13] was 101 % of control, the T/C [14] was 101 % of control and the T/C [15] was 100 % of control.
`COc1cc2c(cc1OC)C1C(=CCC3c4cc(OC)c(OC)cc4CC[N+]31C)C=C2` (stereo unspecified) was tested, and the T/C [13] was 102 % of control, the T/C [14] was 102 % of control and the T/C [15] was 98 % of control.
`COC(=O)c1ccccc1-c1c(C)cccc1[N+](=O)[O-]` was tested, and the T/C (dose: 100.0 mg/kg/injection, schedule: Q01DX001 (ip), vehicle: Klucel (hydroxypropylcellulose) (HPC)) was 98 % of control, the T/C (dose: 200.0 mg/kg/injection, schedule: Q01DX001 (ip), vehicle: Klucel (hydroxypropylcellulose) (HPC)) was 87 % of control and the T/C (dose: 400.0 mg/kg/injection, schedule: Q01DX001 (ip), vehicle: Klucel (hydroxypropylcellulose) (HPC)) was 89 % of control.
In the case of `NC(=S)N/N=C/c1ccc(C(F)(F)F)cn1`, the T/C [12] is reported as 100 % of control and 102 % of control, the T/C (dose: 13.3 mg/kg/injection, schedule: Q01DX001 (ip), vehicle: saline with Tween-80) is reported as 96 % of control and the T/C (dose: 13.3 mg/kg/injection, schedule: Q01DX009 (ip), vehicle: Klucel (hydroxypropylcellulose) (HPC)) is reported as 100 % of control. For the same molecule, the T/C (dose: 13.3 mg/kg/injection, schedule: Q01DX009 (ip), vehicle: saline with Tween-80) was 122 % of control, the T/C (dose: 20.0 mg/kg/injection, schedule: Q01DX001 (ip), vehicle: saline with Tween-80) was 100 % of control and the T/C (dose: 20.0 mg/kg/injection, schedule: Q01DX009 (ip), vehicle: Klucel (hydroxypropylcellulose) (HPC)) was 96 % of control. The T/C [1] was 171 % of control, the T/C [5] was 105 % of control and 107 % of control and the T/C (dose: 30.0 mg/kg/injection, schedule: Q01DX001 (ip), vehicle: saline with Tween-80) was 107 % of control. For the same molecule, the T/C (dose: 30.0 mg/kg/injection, schedule: Q01DX009 (ip), vehicle: Klucel (hydroxypropylcellulose) (HPC)) was 106 % of control, the T/C (dose: 45.0 mg/kg/injection, schedule: Q01DX001 (ip), vehicle: saline with Tween-80) was 108 % of control and the T/C (dose: 45.0 mg/kg/injection, schedule: Q01DX009 (ip), vehicle: saline with Tween-80) was 102 % of control. The T/C [6] was 105 % of control and the T/C (dose: 67.5 mg/kg/injection, schedule: Q01DX001 (ip), vehicle: saline with Tween-80) was 111 % of control.
In the case of `c1ccc(C[N+]23CCC(CC2)CC3)cc1`, the T/C (dose: 6.25 mg/kg/injection, schedule: Q04DX003 (ip), vehicle: saline) is reported as 104 % of control and the T/C (dose: 12.5 mg/kg/injection, schedule: Q04DX003 (ip), vehicle: saline) is reported as 103 % of control.
`CC(O)(CCc1ccccc1)CC(O)(C(F)(F)F)C(F)(F)F` (stereo unspecified) was tested, and the T/C (dose: 100.0 mg/kg/injection, schedule: Q01DX009 (ip), vehicle: other) was 96 % of control, the T/C (dose: 100.0 mg/kg/injection, schedule: Q01DX009 (ip), vehicle: saline with Tween-80) was 97 % of control and the T/C (dose: 200.0 mg/kg/injection, schedule: Q01DX009 (ip), vehicle: other) was 102 % of control. The T/C (dose: 200.0 mg/kg/injection, schedule: Q01DX009 (ip), vehicle: saline with Tween-80) was 102 % of control, the T/C (dose: 400.0 mg/kg/injection, schedule: Q01DX009 (ip), vehicle: other) was 98 % of control and the T/C (dose: 400.0 mg/kg/injection, schedule: Q01DX009 (ip), vehicle: saline with Tween-80) was 108 % of control.
With `COC1(O)C(=O)c2ccccc2OC1(OC)c1ccc(Cl)cc1` (stereo unspecified) the T/C (dose: 50.0 mg/kg/injection, schedule: Q01DX001 (ip), vehicle: saline) was 98 % of control, the T/C [2] was 102 % of control and the T/C [3] was 98 % of control. For the same molecule, the T/C [4] was 98 % of control.
For `CC(C)(C)C1=CC(C(C)(C)C)CCC1=O` (stereo unspecified), the T/C (dose: 100.0 mg/kg/injection, schedule: Q01DX009 (ip), vehicle: acetone) was 94 % of control and the T/C (dose: 200.0 mg/kg/injection, schedule: Q01DX009 (ip), vehicle: acetone) was 94 % of control.
For `COc1ccc([N+](=O)[O-])cc1CO/N=C(/CCC(=O)O)C(=O)O`, the T/C (dose: 100.0 mg/kg/injection, schedule: Q04DX003 (ip), vehicle: saline with Tween-80) was 101 % of control, the T/C (dose: 200.0 mg/kg/injection, schedule: Q04DX003 (ip), vehicle: saline with Tween-80) was 106 % of control and the T/C (dose: 400.0 mg/kg/injection, schedule: Q04DX003 (ip), vehicle: saline with Tween-80) was 101 % of control.
In the case of `CCOC(=O)c1sc(C(=O)OCC)c(-c2ccccc2)c1-c1ccccc1`, the T/C [7] is reported as 108 % of control, the T/C [8] is reported as 93 % of control and the T/C [9] is reported as 96 % of control.
